In patent publication US9814754B2, “Combinations with a backbone-cyclized peptide” (POLYPHOR AG, priority 2012, dated 2017):

What was measured:
Type in all cases: in vivo
[1] = tested on: Pseudomonas aeruginosa clinical isolate PA18298; experiment: Murine pneumonia model, compound 1 in combination with amikacin (Example 4); settings: lung
Description: The efficacy and ED50 of the compound of formula (I) (“compound 1”) in combination with amikacin was determined against Pseudomonas aeruginosa clinical isolate PA18298 in a pneumonia model in mice. Colony counts in lung were determined at 20 hours post treatment.
(§1) Fresh overnight colonies of PA18298 from a 5% Horse Blood Agar plate were suspended in 0.9% sterile saline to approximately 10^8 CFU/ml and further diluted to approximately 5×10^7 CFU/ml. Female mice (DBA/2, outbred, 18-22 g, Charles River) were anesthetized with 0.1 ml of Zoletil and inoculated via the nose with a pipette with 0.05 ml of the bacteria suspension containing approximately 10^6 CFU. 4 hours after inoculation, the mice were treated orally with 45 μl neurophen (20 mg ibuprofen/ml corresponding to approximately 30 mg/kg) as pain relief.
(§2) 175 mg of amikacin (Sigma) were dissolved in 5 ml 0.9% sterile saline to a concentration of 35 mg/ml and further diluted with saline to 3 mg/ml. The mice were treated subcutaneously with 0.2 ml in the neck region with a single dose at 3 hours post infection corresponding to 30 mg/kg on the basis of a mean animal weight of 20 g.
One vial containing 10 mg of active compound 1 was dissolved in 2 ml 0.9% sterile saline to a concentration of 5 mg/ml and further diluted with saline […], 1, 0.55, 0.275 and 0.137 mg/ml. The mice were treated subcutaneously with 0.2 ml in the neck region with a single dose at 4 hours post infection with a dose calculation based on a mean animal weight of 20 g. Colistin was used as a control in the same manner with a fixed dose of 20 mg/kg.
(§3) Colony counts were determined post inoculation at 4 hours (untreated mice) and 24 hours (treated and vehicle-only treated mice). Immediately after the mice were sacrificed, the lungs were collected and frozen at −20° C. After thawing, the organs were homogenized in 1 ml 0.9% saline. Each sample was then 10 fold diluted in saline and 20 μl spots were applied on blood agar plates. All agar plates were incubated 18-24 hours at 35° C. in ambient air.
The CFU/ml in the inoculum was determined to 7.4 log10 CFU/ml corresponding to 6.17 log10 CFU/mouse.
At 4 hours after inoculation the mean log 10 CFU/lung was 5.06 and the CFU level declined to 1.55 mean log 10 CFU/lung after 24 hours in the vehicle group.

[2] = tested on: Pseudomonas aeruginosa clinical isolate PAX11045; experiment: Murine pneumonia model, compound 1 in combination with azithromycin (Example 2); settings: 50 mg/kg alone, lung
Description: The efficacy and ED50 of the compound of formula (I) (“compound 1”) in combination with azithromycin was determined against Pseudomonas aeruginosa clinical isolate PAX11045 in a pneumonia model in mice. Colony counts in lung were determined at 20 hours post treatment.
as §1, with “PAX11045” for “PA18298”, “17-23” for “18-22”
as §2, with “480 mg” for “175 mg”, “of azithromycin (Zitromax™, Pfizer)” for “of amikacin (Sigma)”, “in 4.8” for “in 5”, “of 100” for “of 35”, “to 5” for “to 3”, “to 50” for “to 30”
(§4) The mice were treated subcutaneously with 0.2 ml in the neck region with a single dose at 4 hours post infection with a dose calculation based on a mean animal weight of 20 g.
as §3

[3] = tested on: Pseudomonas aeruginosa clinical isolate PAX11045; experiment: Murine pneumonia model, compound 1 in combination with ertapenem (Example 1); settings: 50 mg/kg alone, lung, p<0.001
Description: The efficacy and ED50 of the compound of formula (I) (“compound 1”) in combination with ertapenem was determined against Pseudomonas aeruginosa clinical isolate PAX11045 in a pneumonia model in mice. Colony counts in lung were determined at 20 hours post treatment.
as §1, with “PAX11045” for “PA18298”
1 g of ertapenem (Invanz™, MSD Denmark Aps) was dissolved in 10 ml 0.9% sterile saline to a concentration of 100 mg/ml and further diluted with saline to 5 mg/ml. The mice were treated subcutaneously with 0.2 ml in the neck region with a single dose at 3 hours post infection corresponding to 50 mg/kg on the basis of a mean animal weight of 20 g.
as §4, §3
The CFU/ml in the inoculum was determined to 7.65 log10 CFU/ml corresponding to 6.35 log10 CFU/mouse.
At 4 hours after infection the mean log10 CFU/lung was 5.14 and the CFU level remained at a similar level after 24 hours in the vehicle-only group.

[4] = tested on: Pseudomonas aeruginosa clinical isolate PA9349; experiment: Murine pneumonia model, compound 1 in combination with ciprofloxacin (Example 3); settings: colistin 20 mg/kg alone, lung
Description: Colony counts in lung were determined at 20 hours post treatment.
Fresh overnight colonies of PA9349 from a 5% Horse Blood Agar plate were suspended in 0.9% sterile saline to approximately 10^8 CFU/ml and further diluted to approximately 10^7 CFU/ml. Female mice (C57BL/6 […], outbred, 20-25 g, Hellenic Pasteur Institute) were anesthetized with ether and inoculated via the nose with a pipette with 0.05 ml of the bacteria suspension containing approximately 10^6 CFU. After inoculation, mice were treated with paracetamol suppositories as a pain relief.
The mice were treated subcutaneously with 0.2 ml in the neck region with a single dose at 3 hours post infection corresponding to 20 mg/kg on the basis of a mean animal weight of 20 g.
1 vial was further diluted with saline to 1, 0.8 and 0.4 mg/ml. The mice were treated subcutaneously with 0.25 ml (25 mg/kg dose) or 0.2 ml (for all other doses) in the neck region with a single dose at 4 hours post infection with a dose calculation based on a mean animal weight of 20 g.
as §3

[5] = tested on: Pseudomonas aeruginosa clinical isolate PA18298; experiment: Murine pneumonia model, compound 1 alone (Reference 3); settings: 20 mg/kg, positive control, lungs, p<0.001
Description: Efficacy in Murine Pneumonia Model Against Pseudomonas aeruginosa PA18298 and Estimation of ED50
The efficacy and ED50 of the compound of formula (I) (“compound 1”) was determined against Pseudomonas aeruginosa clinical isolate PA18298 in a pneumonia model in mice. Colony counts in the lungs were determined at 18-20 hours post treatment.
as §1, with “4×10^7” for “5×10^7”, “Zoletil (tiletamine+zolazepam)” for “Zoletil”, “1×10^6” for “10^6”
One vial containing 10 mg of active compound 1 was dissolved in 2 ml 0.9% sterile saline to a concentration of 5 mg/ml and was further diluted with saline to 2, 1, 0.75, 0.55, 0.275 and 0.137 mg/ml. The mice were treated subcutaneously with 0.2 ml in the neck region with a single dose at 4 hours post infection with a dose calculation based on a mean animal weight of 20 g. As positive control colistin was used in the same manner with a fixed dose of 20 mg/kg.
as §3, with “10-fold” for “10 fold”, “18-48” for “18-24”
The CFU/ml in the inoculum was determined to 7.49 log10 CFU/ml corresponding to 6.20 log10 CFU/mouse.
At 4 hours after infection the mean log10 CFU/lung was 5.05 and the CFU level declined to 2.62 at 24 hours post inoculation in the vehicle-only group.

NCC[C@H](O)C(=O)N[C@@H]1C[C@H](N)[C@@H](O[C@H]2O[C@H](CN)[C@@H](O)[C@H](O)[C@H]2O)[C@H](O)[C@H]1O[C@H]1O[C@H](CO)[C@@H](O)[C@H](N)[C@H]1O [amikacin, reference compound]
effect on bacterial loads ([1]; amikacin 30 mg/kg alone): some effects on reducing the bacterial loads

CC[C@H]1OC(=O)[C@H](C)[C@@H](O[C@H]2C[C@@](C)(OC)[C@@H](O)[C@H](C)O2)[C@H](C)[C@@H](O[C@@H]2O[C@H](C)C[C@H](N(C)C)[C@H]2O)[C@](C)(O)C[C@@H](C)CN(C)[C@H](C)[C@@H](O)[C@]1(C)O [azithromycin, reference compound]
effect on bacterial loads [2]: no effect on the bacterial loads

C[C@@H](O)[C@H]1C(=O)N2C(C(=O)O)=C(S[C@@H]3CN[C@H](C(=O)Nc4cccc(C(=O)O)c4)C3)[C@H](C)[C@H]12 [ertapenem, reference compound]
effect on bacterial loads [3]: significant effect on reducing the bacterial loads

colistin [reference compound]
effect on bacterial loads [4]: no or only slight effects on the bacterial loads | effect on bacterial loads [5]: some effect on reducing the bacterial loads | effect on bacterial loads ([1]; colistin 20 mg/kg, control): some effects on reducing the bacterial loads
